Patent US20220041606A1, “POSITIVE ALLOSTERIC MODULATORS OF THE MUSCARINIC ACETYLCHOLINE RECEPTOR M1” (Vanderbilt University, priority 2020, published 2022)

Experiments:
human mAChR M1 [1] = biological target: T1, human mAChR M1 (Homo sapiens, UniProt P11229); test: mAChR M1 cell-based functional assay (calcium mobilization), agonist activity upon compound addition; conditions: CHO-K1 cells expressing hM1; for EC50: compound alone, before acetylcholine addition; for Emax: relative to the maximum for acetylcholine
T1 construct: host or cells: CHO-K1 cells (ATCC), stably transfected using Lipofectamine2000
T1 sequence (P11229 1-460): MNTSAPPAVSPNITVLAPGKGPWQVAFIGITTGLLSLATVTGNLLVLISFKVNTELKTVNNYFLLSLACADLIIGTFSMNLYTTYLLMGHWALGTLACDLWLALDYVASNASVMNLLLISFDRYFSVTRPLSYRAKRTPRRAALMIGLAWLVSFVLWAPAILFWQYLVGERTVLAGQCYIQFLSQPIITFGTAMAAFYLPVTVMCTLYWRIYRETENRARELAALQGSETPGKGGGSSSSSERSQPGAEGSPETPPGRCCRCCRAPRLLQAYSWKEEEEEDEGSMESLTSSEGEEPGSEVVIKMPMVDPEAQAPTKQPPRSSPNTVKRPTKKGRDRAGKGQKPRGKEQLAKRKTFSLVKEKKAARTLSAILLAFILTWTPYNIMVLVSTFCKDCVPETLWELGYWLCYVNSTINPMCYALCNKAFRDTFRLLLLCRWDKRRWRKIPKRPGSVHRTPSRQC
In short: (§1)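 Fluorescence ratio calcium read-out (Fluo-4 AM, FDSS 6000) in human M1-expressing CHO-K1 cells. Agonist activity taken as concentration-dependent rise after compound addition; potentiation as enhancement of a subsequent EC20 acetylcholine challenge. Curves from 11-point threefold dilutions fitted by four-parameter logistic; Emax expressed versus acetylcholine maximum.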

human mAChR M1 [2] = biological target: T1, human mAChR M1; test: mAChR M1 cell-based functional assay (calcium mobilization), PAM activity: increase in the EC20 acetylcholine response; conditions: CHO-K1 cells expressing hM1; potentiation of EC20 acetylcholine response
In short: as §1

| EC50 (human mAChR M1 [1]) [µM] | Emax (human mAChR M1 [1]) [%] | EC50 (human mAChR M1 [2]) [nM] | Emax (human mAChR M1 [2]) [%] | Structure (SMILES) |
| --- | --- | --- | --- | --- |
| > 10 | < 5 | 9290 | 33 | Cc1cn2c(=O)n(Cc3ccc(-c4ccn(C)n4)cc3F)cc(C(=O)N[C@H]3CCOC[C@@H]3O)c2n1 [Compound B25, 6-(2-fluoro-4-(1-methyl-1H-pyrazol-3-yl)benzyl)-N-((3R,4S)-3-hydroxytetrahydro-2H-pyran-4-yl)-2-methyl-5-oxo-5,6-dihydroimidazo[1,2-c]pyrimidine-8-carboxamide] |
| – | 34 | 1370 | 68 | Cn1cc(-c2ccc(Cn3cc(C(=O)N[C@H]4CCOC[C@@H]4O)c4ncccc4c3=O)cn2)cn1 [Compound A15, N-((3R,4S)-3-hydroxytetrahydro-2H-pyran-4-yl)-6-((6-(1-methyl-1H-pyrazol-4-yl)pyridin-3-yl)methyl)-5-oxo-5,6-dihydro-1,6-naphthyridine-8-carboxamide] |
| > 10 | < 5 | > 10000 | 58 | O=C(N[C@H]1CCCCC[C@@H]1O)c1cn(Cc2ccc(-n3cccn3)cc2)c(=O)c2ccoc12 [Compound D5, 5-(4-(1H-pyrazol-1-yl)benzyl)-N-((1S,2S)-2-hydroxycycloheptyl)-4-oxo-4,5-dihydrofuro[3,2-c]pyridine-7-carboxamide] |
| 3.17 | 55 | 100 | 70 | O=C(N[C@H]1CCCC[C@@H]1O)c1cn(Cc2ccc(-n3cccn3)cc2)c(=O)n2ccnc12 [Compound B13, 6-(4-(1H-pyrazol-1-yl)benzyl)-N-((1S,2S)-2-hydroxycyclohexyl)-5-oxo-5,6-dihydroimidazo[1,2-c]pyrimidine-8-carboxamide] |
| – | 27 | 980 | 68 | Cn1cc(-c2ccc(Cn3cc(C(=O)N[C@H]4CCCC[C@@H]4O)c4ncccc4c3=O)cn2)cn1 [Compound A16, N-((1S,2S)-2-hydroxycyclohexyl)-6-((6-(1-methyl-1H-pyrazol-4-yl)pyridin-3-yl)methyl)-5-oxo-5,6-dihydro-1,6-naphthyridine-8-carboxamide] |
| > 10 | < 5 | 5290 | 42 | Cn1cc2c(-c3cc(F)c(Cn4cc(C(=O)N[C@H]5CCCCC[C@@H]5O)c5sccc5c4=O)c(F)c3)cccc2n1 [Compound D33, 5-(2,6-difluoro-4-(2-methyl-2H-indazol-4-yl)benzyl)-N-((1S,2S)-2-hydroxycycloheptyl)-4-oxo-4,5-dihydrothieno[3,2-c]pyridine-7-carboxamide] |
| > 10 | < 5 | 1140 | 54 | Cc1cc(-c2ccc(Cn3cc(C(=O)N[C@H]4CCC[C@@H]4O)c4ncccc4c3=O)c(F)c2)ccn1 [Compound A28, 6-(2-fluoro-4-(2-methylpyridin-4-yl)benzyl)-N-((1S,2S)-2-hydroxycyclopentyl)-5-oxo-5,6-dihydro-1,6-naphthyridine-8-carboxamide] |
| 8.2 | 23 | 220 | 89 | Cn1cc(-c2ccc(Cn3cc(C(=O)N[C@H]4CCOC[C@@H]4O)c4ncccc4c3=O)c(F)c2)cn1 [Compound A6, 6-(2-fluoro-4-(1-methyl-1H-pyrazol-4-yl)benzyl)-N-((3R,4S)-3-hydroxytetrahydro-2H-pyran-4-yl)-5-oxo-5,6-dihydro-1,6-naphthyridine-8-carboxamide] |
| > 10 | 11 | 2120 | 81 | Cn1cc(-c2ccc(Cn3cc(C(=O)N[C@H]4CCCC[C@@H]4O)c4occc4c3=O)c(F)c2)cn1 [Compound D13, 5-(2-fluoro-4-(1-methyl-1H-pyrazol-4-yl)benzyl)-N-((1S,2S)-2-hydroxycyclohexyl)-4-oxo-4,5-dihydrofuro[3,2-c]pyridine-7-carboxamide] |
